Toxic doses and inconclusive results are not listed. The calls were made as follows: active = survival T/C of 150% or more; inactive = T/C below 125% in these data.
Tested on: BDF1 mice, P388 leukemia ip, median survival T/C
Test: NCI In Vivo Anticancer Drug Screen. Data for tumor model P388 Leukemia (intraperitoneal) in B6D2F1 (BDF1) mice
Details: endpoint: median survival time, higher = longer survival
Method in brief: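 Each value expresses how treatment altered survival: treated-mouse outcome over vehicle-mouse outcome, both groups bearing the transplanted tumour.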

[1] = dose: 100.0 mg/kg/injection, schedule: Q04DX003 (ip), vehicle: saline sonified
[2] = dose: 200.0 mg/kg/injection, schedule: Q04DX003 (ip), vehicle: saline sonified
[3] = dose: 400.0 mg/kg/injection, schedule: Q04DX003 (ip), vehicle: saline sonified
[4] = dose: 100.0 mg/kg/injection, schedule: Q04DX003 (ip), vehicle: Klucel (hydroxypropylcellulose) (HPC)
[5] = dose: 200.0 mg/kg/injection, schedule: Q04DX003 (ip), vehicle: Klucel (hydroxypropylcellulose) (HPC)
[6] = dose: 400.0 mg/kg/injection, schedule: Q04DX003 (ip), vehicle: Klucel (hydroxypropylcellulose) (HPC)

Measured: T/C

CCOP(=O)(OCC)SCSC(C)C
inactive: dose: 0.19 mg/kg/injection, schedule: Q01DX009 (ip), vehicle: Klucel (hydroxypropylcellulose) (HPC) 88 % of control | dose: 3.12 mg/kg/injection, schedule: Q01DX009 (ip), vehicle: Klucel (hydroxypropylcellulose) (HPC) 96 % of control

CC[C@H](C)c1occ2c(O)c(C(=O)O)c(=O)cc-2c1C
inactive: dose: 6.0 mg/kg/injection, schedule: Q01DX009 (ip), vehicle: Klucel (hydroxypropylcellulose) (HPC) 100 % of control | dose: 12.0 mg/kg/injection, schedule: Q01DX009 (ip), vehicle: Klucel (hydroxypropylcellulose) (HPC) 118 % of control | dose: 25.0 mg/kg/injection, schedule: Q01DX009 (ip), vehicle: Klucel (hydroxypropylcellulose) (HPC) 118 % of control

CCc1ccc(OS(=O)(=O)c2ccccc2[N+](=O)[O-])cc1
inactive: [1] 100 % of control | [2] 100 % of control | [3] 100 % of control

Cc1cc(C)c(C(=O)CC(=O)c2cccnc2)c(C)c1
inactive: dose: 100.0 mg/kg/injection, schedule: Q01DX009 (ip), vehicle: other 115 % of control | dose: 100.0 mg/kg/injection, schedule: Q04DX003 (ip), vehicle: other 100 % of control | dose: 200.0 mg/kg/injection, schedule: Q01DX009 (ip), vehicle: other 120 % of control | dose: 200.0 mg/kg/injection, schedule: Q04DX003 (ip), vehicle: other 100 % of control | dose: 400.0 mg/kg/injection, schedule: Q01DX009 (ip), vehicle: other 110 % of control | dose: 400.0 mg/kg/injection, schedule: Q04DX003 (ip), vehicle: other 100 % of control

CCCCCCCCN1CCCNCC1
inactive: dose: 25.0 mg/kg/injection, schedule: Q01DX009 (ip), vehicle: saline 100 % of control

COc1cccc(N2C(N)=NC(N)=NC2(C)C)c1
inactive: dose: 9.37 mg/kg/injection, schedule: Q01DX009 (ip), vehicle: Klucel (hydroxypropylcellulose) (HPC) 108 % of control | dose: 18.75 mg/kg/injection, schedule: Q01DX009 (ip), vehicle: Klucel (hydroxypropylcellulose) (HPC) 93 % of control

Nc1nc(N)c(N=Cc2ccccc2)c(=O)[nH]1
inactive: dose: 100.0 mg/kg/injection, schedule: Q01DX001 (ip), vehicle: saline with Tween-80 108 % of control | dose: 200.0 mg/kg/injection, schedule: Q01DX001 (ip), vehicle: saline with Tween-80 88 % of control | dose: 400.0 mg/kg/injection, schedule: Q01DX001 (ip), vehicle: saline with Tween-80 97 % of control

C/C(=N\OCc1cc2c(cc1Cl)OCO2)C(=O)O
inactive: [1] 113 % of control | [2] 109 % of control | [3] 109 % of control

O=C(NC(=O)c1c(F)cccc1F)Nc1nc2cc(Cl)ccc2o1
inactive: dose: 25.0 mg/kg/injection, schedule: Q01DX009 (ip), vehicle: saline with Tween-80 96 % of control | dose: 50.0 mg/kg/injection, schedule: Q01DX009 (ip), vehicle: saline with Tween-80 96 % of control | dose: 100.0 mg/kg/injection, schedule: Q01DX009 (ip), vehicle: saline with Tween-80 90 % of control

CC1(C)OB(C(B2OC(C)(C)C(C)(C)O2)=C(CCl)CCl)OC1(C)C
inactive: dose: 25.0 mg/kg/injection, schedule: Q01DX001 (ip), vehicle: saline sonified 86 % of control | dose: 50.0 mg/kg/injection, schedule: Q01DX001 (ip), vehicle: saline sonified 95 % of control | dose: 100.0 mg/kg/injection, schedule: Q01DX001 (ip), vehicle: saline sonified 95 % of control

CCN(CC)c1ccc(/C=C/c2ccncc2)cc1
inactive: [4] 100 % of control | [5] 100 % of control | [6] 109 % of control

CCSc1nc(=S)cc(C)[nH]1
inactive: dose: 100.0 mg/kg/injection, schedule: Q01DX009 (ip), vehicle: Klucel (hydroxypropylcellulose) (HPC) 105 % of control | [4] 95 % of control | dose: 200.0 mg/kg/injection, schedule: Q01DX009 (ip), vehicle: Klucel (hydroxypropylcellulose) (HPC) 100 % of control | [5] 95 % of control | dose: 400.0 mg/kg/injection, schedule: Q01DX009 (ip), vehicle: Klucel (hydroxypropylcellulose) (HPC) 105 % of control | [6] 104 % of control

CCC(C)NC(=S)NN (stereo unspecified)
inactive: dose: 10.0 mg/kg/injection, schedule: Q01DX009 (ip), vehicle: saline with Tween-80 95 % of control | dose: 20.0 mg/kg/injection, schedule: Q01DX009 (ip), vehicle: saline with Tween-80 100 % of control | dose: 40.0 mg/kg/injection, schedule: Q01DX009 (ip), vehicle: saline with Tween-80 95 % of control
